“Also recorded” adds a separate entry of the source.
What was measured:
[1] = test system: Burkitt's lymphoma Bjab-luc xenograft tumors; assay: in vivo Bjab-luc xenograft tumor efficacy study; set-up: species or system CB17 SCID mice
Method: The therapeutic effect of the antibody-drug conjugate (ADC) compounds and the improvement of their therapeutic efficacy in comparison with the parent drug, were assessed in animal models of human transplanted tumors. Mice bearing xenografts of human tumors were treated with suitable doses of antibody-drug conjugates, of PNU-159682 free drug, and naked antibody, at certain doses, and the tumor growth was recorded and compared in the different treatment groups. FIGS. 30-32 show the efficacy of the antibody-drug conjugates of Formula Ic by xenograft tumor inhibition in mice.
The efficacy of the antibody-drug conjugates of the invention may be measured in vivo by implanting allografts or xenografts of cancer cells or primary tumors in rodents and treating the tumors with ADC according to the procedures of Example 12. Variable results are to be expected depending on the cell line, the specificity of antibody binding of the ADC to receptors present on the cancer cells, dosing regimen, and other factors. For example, the in vivo efficacy of anti-HER2 ADC may be measured by a high expressing HER2 transgenic explant mouse model. […] Subjects are treated once with ADC and monitored over 3-6 weeks to measure the time to tumor doubling, log cell kill, and tumor shrinkage. Follow up dose-response and multi-dose experiments may be further conducted.
The Bjab-luc (EBV-negative Burkitt's lymphoma, luciferase expressing Bjab cells) tumors express CD22 receptor protein (Polson et al (2009) Cancer Res. 69(6):2358-2364; US 2008/0050310; US 2005/0276812). CD22 is expressed only in the B-cell compartment and on the surface of most NHL cells (D'Arena et al (2000) Am J Hematol. 64:275-81; Olejniczak et al (2006) Immunol Invest. 35:93-114). Efficacy in inhibiting the Bjab-luc xenograft tumor in mice as a model system may predict the clinical response in treating patients with hematopoietic malignancies such as non-Hodgkins lymphoma.
Efficacy studies were performed using SCID mice (Charles River Laboratories). […] When tumor volumes reached 150-200 mm^3 (typically Day 14 to Day 21 after inoculation), the mice were segregated into sample groups of 9-10 mice per group and the tumor volume was determined in each mouse. […] ADC doses were either measured as the mass of the conjugated cytotoxic small molecule drug per surface area of the mouse, or as a constant mass of ADC per mass of the mouse (e.g., 5 mg of ADC/kg mouse). […] Tumor volume was measured using calipers according to the formula: V (mm^3)=0.5A×B^2, where A and B are the long and short diameters, respectively. […] Data collected from each experimental group were expressed as mean±SE.

MCF7 cells = assay: CellTiter-Glo in vitro cell proliferation assay, MCF7; format: cell-based, human
Source text: (§1) Cell-based in vitro assays may be used to measure viability, i.e. proliferation (IC50), cytotoxicity (EC50), and induction of apoptosis (caspase activation) of the ADC. The CellTiter-Glo® Luminescent Cell Viability Assay is a commercially available (Promega Corp., Madison, Wis.), homogeneous assay method based on the recombinant expression of Coleoptera luciferase (U.S. Pat. Nos. 5,583,024; 5,674,713; 5,700,670). This cell proliferation assay determines the number of viable cells in culture based on quantitation of the ATP present, an indicator of metabolically active cells (Crouch et al (1993) J. Immunol. Meth. 160:81-88; U.S. Pat. No. 6,602,677). The CellTiter-Glo® Assay is conducted in 96 well format, making it amenable to automated high-throughput screening (HTS) (Cree et al (1995) AntiCancer Drugs 6:398-404). The homogeneous assay procedure involves adding the single reagent (CellTiter-Glo® Reagent) directly to cells cultured in serum-supplemented medium. Cell washing, removal of medium and multiple pipetting steps are not required. The system detects as few as 15 cells/well in a 384-well format in 10 minutes after adding reagent and mixing.
(§2) The in vitro potency of antibody-drug conjugates was measured by a cell proliferation assay (FIGS. 8-29). The CellTiter-Glo® Luminescent Cell Viability Assay is a commercially available (Promega Corp., Madison, Wis.), homogeneous assay method based on the recombinant expression of Coleoptera luciferase (U.S. Pat. Nos. 5,583,024; 5674,713; 5,700,670). This assay determines the number of viable cells in culture based on quantitation of the ATP present, an indicator of metabolically active cells (Crouch et al (1993) J. Immunol. Meth. 160:81-88; U.S. Pat. No. 6,602,677). The CellTiter-Glo® Assay was conducted in 96 well format, making it amenable to automated high-throughput screening (HTS) (Cree et al (1995) AntiCancer Drugs 6:398-404). The homogeneous assay procedure involves adding the single reagent (CellTiter-Glo® Reagent) directly to cells cultured in serum-supplemented medium.
(§3) The homogeneous “add-mix-measure” format results in cell lysis and generation of a luminescent signal proportional to the amount of ATP present. The substrate, Beetle Luciferin, is oxidatively decarboxylated by recombinant firefly luciferase with concomitant conversion of ATP to AMP and generation of photons. Viable cells are reflected in relative luminescence units (RLU). Data can be recorded by luminometer or CCD camera imaging device. The luminescence output is presented as RLU, measured over time. Alternatively, photons from luminescence can be counted in a scintillation counter in the presence of a scintillant. The light units can be represented then as CPS—counts per second.
(§4) Efficacy of ADC were measured by a cell viability assay employing the following protocol, adapted from CellTiter Glo Luminescent Cell Viability Assay, Promega Corp. Technical Bulletin TB288 and Mendoza et al (2002) Cancer Res. 62:5485-5488: • 1. An aliquot of 50 μl of cell culture containing about 1000 or more cells, including: HER2-expressing and CD22-expressing cells, in medium was deposited in each well of a 96-well, opaque-walled, clear bottom plate. • 2. ADC (50 μl) was added to triplicate experimental wells to final concentration of 10 μg/mL, with “no ADC” control wells receiving medium alone, and incubated for 3 or more days. • 3. The plates were equilibrated to room temperature for approximately 30 minutes. • 4. CellTiter-Glo Reagent (100 μl) was added. • 5. The contents were mixed for 2 minutes on an orbital shaker to induce cell lysis. • 6. The plate was incubated at room temperature for 10 minutes to stabilize the luminescence signal. • 7. Luminescence was recorded and reported in graphs as RLU=relative luminescence units.

[2] = test system: doxorubicin-resistant (DoxRes) HER2 cells; assay: CellTiter-Glo in vitro cell proliferation assay, doxorubicin-resistant HER2; format: cell-based
Source text: as §1, §2, §3, §4

SK-BR-3 cells = assay: CellTiter-Glo in vitro cell proliferation assay, SK-BR-3; format: cell-based
Source text: as §1, §2, §3, §4

tumor models = conditions: cited from earlier work
BT-474 cells = assay: CellTiter-Glo in vitro cell proliferation assay, BT-474; format: cell-based
Source text: as §1, §2, §3, §4

[3] = 8.77 ug/kg single iv dose day 0, 48 day study

## COc1cccc2c1C(=O)c1c(O)c3c(c(O)c1C2=O)C[C@@](O)(C(=O)CO)C[C@@H]3O[C@H]1C[C@H]2[C@H](O[C@@H]3[C@@H](OC)OCCN32)[C@H](C)O1 [PNU-159682, 3′-deamino-3″,4′-anhydro-[2″(S)-methoxy-3″(R)-oxy-4″-morpholinyl]doxorubicin, reference compound]
[1]; [3]
  CR-complete tumor regression: 0
  PR-partial tumor regression: 0
  TI-tumor incidence: 9/9
[1]; single dosing on day 0, doses of FIG. 30
  tumor growth inhibition in Bjab-luc xenograft, in words: no effect on tumor growth
MCF7 cells; brief (1 hr) exposure
  MCF7 in vitro cell viability at 3 days, in words: effectively inhibited growth
MCF7 cells; continuous exposure, 3 days
  MCF7 in vitro cell viability at 3 days, anti-proliferative activity in words: most potently inhibited; also recorded: caused cytotoxicity at all concentrations tested
[2]; brief (1 hr) exposure
  DoxRes HER2 in vitro cell viability at 3 days, in words: effectively inhibited growth
[2]; continuous exposure, 3 days
  DoxRes HER2 in vitro cell viability at 3 days, anti-proliferative activity in words: most potently inhibited; also recorded: inhibited growth at all concentrations tested
SK-BR-3 cells; brief (1 hr) exposure
  SK-BR-3 in vitro cell viability at 3 days, in words: effectively inhibited growth
SK-BR-3 cells; continuous exposure, 3 days
  SK-BR-3 in vitro cell viability at 3 days, anti-proliferative activity in words: most potently inhibited; also recorded: caused cytotoxicity at all doses tested
Tumor models
  antitumor activity in in vivo tumor models, in words: effective in vivo tumor models
BT-474 cells; brief (1 hr) exposure
  BT-474 in vitro cell viability at 3 days, in words: effectively inhibited growth
BT-474 cells; continuous exposure, 3 days
  BT-474 in vitro cell viability at 3 days, anti-proliferative activity in words: most potently inhibited; also recorded: caused cytotoxicity at all doses tested

From patent US9695240B2, “Anthracycline derivative conjugates, process for their preparation and their use as antitumor compounds” (Genentech, Inc., priority 2008, dated 2017)
